From patent US10975087B2, “Solid forms of tetrahydropyranyl amino-pyrrolopyrimidinone compounds” (ArQule, Inc., priority 2018, dated 2021)

Tests used:
Assay type in all cases: physicochemical
[1] = Aqueous solubility; conditions: water, thermodynamic from solid, solvent addition method
[2] = Acetone solubility; conditions: organic solvent or mixture, thermodynamic from solid, partial dissolution, solvent addition method
[3] = Gravimetric vapor sorption (GVS)
Description: Approximately 10-20 mg of sample was placed into a mesh vapor sorption balance pan and loaded into an IGASorp Moisture Sorption Analyzer balance by Hiden Analytical. The sample was subjected to a ramping profile from 40-90% relative humidity (RH) at 10% increments, maintaining the sample at each step until a stable weight had been achieved (98% step completion). After completion of the sorption cycle, the sample was dried using the same procedure to 0% RH, and finally taken back to the starting point of 40% RH. Two cycles were performed. The weight change during the sorption/desorption cycles were plotted, allowing for the hygroscopic nature of the sample to be determined.

[4] = Acetone solubility; conditions: form of residual solid; amorphous input: Form 2 residual solid with additional peaks
Description: Aqueous and acetone solubility was carried out using 3-10 mg of material, depending on availability, and slurrying in 150-200 μL of acetone or 300 μL of deionized water. The samples were agitated at ambient temperature then filtered by centrifugation (0.22 μm nylon filter) after ca. 24 hours and the solids analyzed by XRPD as damp solids. The filtrates were analyzed by HPLC for concentration determination. The water solubility was too low for detection using the current analytical method.

[5] = Dynamic vapor sorption (DVS)
Description: Approximately 10-20 mg of sample was placed into a mesh vapor sorption balance pan and loaded into a DVS-1 dynamic vapor sorption balance by Surface Measurement Systems. […] After completion of the sorption cycle, the sample was dried using the same procedure to 0% RH and then a second sorption cycle back to 40% RH. Two cycles were performed. The weight change during the sorption/desorption cycles were plotted, allowing for the hygroscopic nature of the sample to be determined. XRPD analysis may be then carried out on any solid retained.

[6] = Form conversion under ambient or vacuum drying conditions; conditions: vacuum drying

Structure (SMILES)	Solubility [1] [mg/mL]	Solubility [2] [mg/mL]	XRPD post GVS ([3]; cell wraps: Remained | unchanged)	GVS (hygroscopicity) ([3]; summary Table 11) [% uptake]	Acetone solubility: residual solid [4]	hygroscopic nature by DVS [5]	Post-DVS XRPD analysis (form) ([5]; after exposure to elevated humidity)	moisture uptake by DVS ([5]; at 90% RH) [%]	form conversion under vacuum drying conditions [6]
O=C(c1ccc(Oc2ccccc2)cc1Cl)c1c[nH]c2ncnc(N[C@@H]3CC[C@@H](CO)OC3)c12 [amorphous Compound A, (2-chloro-4-phenoxyphenyl)(4-(((3R,6S)-6-(hydroxymethyl)tetrahydro-2H-pyran-3-yl)amino)-7H-pyrrolo[2,3-d]pyrimidin-5-yl)methanone]	< 10	≥ 16	Remained	3.9	(Form 2 residual	hygroscopic	remain amorphous	3.9	
O=C(O)C(=O)O.O=C(c1ccc(Oc2ccccc2)cc1Cl)c1c[nH]c2ncnc(N[C@@H]3CC[C@@H](CO)OC3)c12 [oxalate Form 1]									converts to oxalate Form 5
